# Measured values as given in patent publication US8173387B2, “Method of examining chemical using gene-disrupted strain” (priority 2003, dated 2012).
# How the values were obtained:
# Format in all cases: cell-based, Saccharomyces cerevisiae
# [1] = test system: gene-disrupted strain DEL000 (YPR036W) transformed with a plasmid p-YBR072W; assay: promoter assay (GFP reporter), Example 2; conditions: GFP fluorescence 4 hours after loading, parent strain BY4743
# Protocol: (§1) In a gene-disrupted strain, a growing rate becomes small so much, or medium components in which the strain can be grown are different in some cases, depending on a disrupted gene. Then, in the present experiment studying a host cell of a promoter assay method, in view of easy comparison with a control experiment, among gene-disrupted strains obtained as the result of Example 1, a few strains which have sensitivity to many chemicals and are grown by the same procedure as that of a parent strain were selected. Selected gene-disrupted strains are 8 strains of DEL000, DEL002, DEL011, DEL014, DEL016, DEL019, DEL022 and DEL025 in Table 7. Further, as a control, a parent strain, BY4743 was used.
# (§2) A competent cell of each of a parent strain of a gene-disrupted strain and selected gene-disrupted strains was prepared. This competent cell was transformed using two kinds of prepared plasmids for promoter assay, p-YBR072W (in which GFP was connected understream of a promoter of YBR072W) and p-YPL171C (in which GFP was connected downstream of a promoter of YPL171C).
# (§3) The resulting transformant was grown to the steady state by shaking-culturing on a SD medium (histidine, leucine) at 25° C. The transformant in the steady state was diluted 500-fold with the same medium, shaking-cultured at 25° C. for 15 hours and, after it was confirmed that an absorbance at 600 nm was 0.2 to 0.5 as a logarithmic growth phase, chemicals having different concentrations were loaded. After loading of chemicals, fluorescence of cells which had been cultured for 4 hours was measured using a flow cytometer (FITC filter, EPICS XL-MCL, Bechmancoulter), and this was adopted as an expression amount of GFP (green fluorescence protein) which is a marker gene. A fluorescence intensity of 10000 cells was measured with a flow cytometer by one measurement and an average of fluorescence intensities of all cells was obtained, and was adopted as a measured value. Similarly, a fluorescence intensity of a cell to which a chemical had not been loaded was obtained, and results are shown as a fluorescence intensity ratio.
# [2] = test system: gene-disrupted strain DEL019 (YIL036W) transformed with a plasmid p-YBR072W; assay: promoter assay (GFP reporter), Example 2; conditions: DEL 019, p-YBR072W, GFP fluorescence 4 hours after loading, parent strain BY4743
# Protocol: as §1, §2, §3
# [3] = test system: gene-disrupted strain DEL022 (YLR226W) transformed with a plasmid p-YBR072W; assay: promoter assay (GFP reporter), Example 2; conditions: GFP fluorescence 4 hours after loading, parent strain BY4743
# Protocol: as §1, §2, §3
# [4] = test system: gene-disrupted strain DEL025 (YLR311C) transformed with a plasmid p-YBR072W; assay: promoter assay (GFP reporter), Example 2; conditions: DEL025, p-YBR072W, GFP fluorescence 4 hours after loading, parent strain BY4743
# Protocol: as §1, §2, §3
# [5] = test system: heterozygous diploid of gene-disrupted strain DEL022 (YLR226W) transformed with a plasmid p-YBR072W; assay: promoter assay (GFP reporter), Example 3; conditions: DEL0022 heterozygous diploid, W303 background
# Text: (§4) In order to prepare a gene-disrupted strain transformation cassette, genes having chemical sensitivity; YPR036W(DEL000), YDL151C(DEL001), YGL026C(DEL003), YHR039C-A(DEL006), YKL080W(DEL007), YLR447C(DEL008), YGR006W(DEL012), YGR105W(DRL013), YJR104C(DEL014), YGL206C(DEL018), YIL036W(DEL019), YKL119C(DEL020), YLR226W(DEL022) and YLR311C(DEL025) in Table 7 were selected, and each gene was replaced with a transformation marker such as kanamycin resistance. As primers for performing PCT amplification, a N-terminal side (ORF(upper)) and a C-terminal side (ORF(lower)) in each ORF were used. A length of a sequence (ORF(upper) and ORF(lower)) of a primer homologues with ORF was 46 or 50 bp.
# (§5) A W303 a mating type (ATCC200903) and a W303α mating type (ATCC201238) in which the same gene was gene disruption-manipulated were mated by a mating procedure (Yeast Gene Experimental Manual: Maruzen Co., Ltd., p 83-92) to prepare homozygous diploids. Separately, mating of a W303a mating type, and a non-gene-disrupted W303α type was performed by the similar procedure to prepare heterozygous diploids.
# (§6) By such the procedure, homozygous diploids of DEL000, DEL001, DEL003, DEL006, DEL007, DEL008, DEL012, DEL013, DEL014, DEL018, DEL019, DEL020, DEL022 and DEL025 in Table 7 were prepared. In addition, heterozygous diploids in which DEL006, DEL014 and DEL 022 were mated with a non-gene-disrupted strain (hereafter, referred to as DEL006 heterozygous diploid, DEL 014 heterozygous diploid, DEL022 heterozygous diploid) and, further, a heterozygous diploid in which DEL000 and DEL014 were mated (hereafter, referred to as DEL000/014 heterozygous diploid) were prepared.
# (§7) Competent cells of W303 ATCC201239 (MATa/MATα leu2-3/leu2-3 leu2-112/leu2-112 trp1-1/trp1-1 ura3-1/ura3-1 his 3-11/his3-11 his3-15/his3-15 ade2-1/ade2-1 can1-100/can1-100) which is a parent strain of gene-disrupted strains, and each of prepared gene-disrupted strains were prepared. The competent cells were transformed using two kind of prepared plasmid for promoter assay, p-YBR072W (in which GFP is connected downstream of a promoter of YBR072W) and p-YPL171C (in which GFP is connected downstream of a promoter of YPL171C).
# (§8) The resulting transformant was grown to the steady state by shaking-culturing on a SD medium (adenine, hystidine, triptophan, leucine) at 25° C. The transformant in the steady state was diluted 500-fold with the same medium, shaking-cultured at 25° C. for 15 hours and, after it was confirmed that an absorbance at 600 nm was 0.2 to 0.5 as a logarithmic growth phase, chemicals having different concentrations were loaded. After loading of chemicals, fluorescence of cells which had been cultured for 4 hours was measured using a flow cytometer (FITC filter, EPICS XL-MCL, Bechmancoulter), and this was adopted as an expression amount of GFP (green fluorescence protein) which is a marker gene. A fluorescence intensity of 10000 cells was measured with a flow cytometer by one measurement and an average of fluorescence intensities of all cells was obtained, and was adopted as a measured value. Similarly, a fluorescence intensity of a cell to which a chemical had not been loaded was obtained, and results are shown as difference in a fluorescence intensity.
# [6] = test system: homozygous diploid of gene-disrupted strain DEL006 (YHR039C-A) transformed with a plasmid p-YBR072W; assay: promoter assay (GFP reporter), Example 3; conditions: W303 background
# Text: as §4, §5, §6, §7, §8
# [7] = test system: homozygous diploid of gene-disrupted strain DEL007 (YKL080W) transformed with a plasmid p-YBR072W; assay: promoter assay (GFP reporter), Example 3; conditions: EL007 homozygous diploid, W303 background
# Text: as §4, §5, §6, §7, §8
# [8] = test system: homozygous diploid of gene-disrupted strain DEL012 (YGR006W) transformed with a plasmid p-YBR072W; assay: promoter assay (GFP reporter), Example 3; conditions: W303 background
# Text: as §4, §5, §6, §7, §8
# [9] = test system: homozygous diploid of gene-disrupted strain DEL013 (YGR105W) transformed with a plasmid p-YBR072W; assay: promoter assay (GFP reporter), Example 3; conditions: W303 background
# Text: as §4, §5, §6, §7, §8
# [10] = test system: homozygous diploid of gene-disrupted strain DEL020 (YKL119C) transformed with a plasmid p-YBR072W; assay: promoter assay (GFP reporter), Example 3; conditions: W303 background
# Text: as §4, §5, §6, §7, §8
# [11] = test system: homozygous diploid of gene-disrupted strain DEL022 (YLR226W) transformed with a plasmid p-YBR072W; assay: promoter assay (GFP reporter), Example 3; conditions: DEL022 (DEL0022) homozygous diploid, W303 background
# Text: as §4, §5, §6, §7, §8
smiles,measurement,setting,value
CCN(CC)C(=O)SCc1ccc(Cl)cc1 [benthiocarb],"concentration at which the strain responded, as fraction of a concentration of a parent strain",[1],1/3
same,"concentration at which the strain responded, as fraction of a concentration of a parent strain",[2],1/100
same,"concentration at which the strain responded, as fraction of a concentration of a parent strain",[3],1/10
same,"concentration at which the strain responded, as fraction of a concentration of a parent strain",[4],1/3
same,"concentration at which sensitivity is shown, as fraction of a concentration of a gene-non-disrupted strain",[5],1/3
same,"concentration at which sensitivity is shown, as fraction of a concentration of a gene-non-disrupted strain",[6],1/10
same,"concentration at which sensitivity is shown, as fraction of a concentration of a gene-non-disrupted strain",[7],1/10
same,"concentration at which sensitivity is shown, as fraction of a concentration of a gene-non-disrupted strain",[8],1/3
same,"concentration at which sensitivity is shown, as fraction of a concentration of a gene-non-disrupted strain",[9],1/3
same,"concentration at which sensitivity is shown, as fraction of a concentration of a gene-non-disrupted strain",[10],1/3
same,"concentration at which sensitivity is shown, as fraction of a concentration of a gene-non-disrupted strain",[11],1/10
